Laboratory results reported in US12421264B2 (INSTITUT NATIONAL DE LA RECHERCHE SCIENTIFIQUE, priority 2018, dated 2025).

Key:
[1] = system: N. meninigitidis (LNP24198) expressing luciferase (LuxABCDE); assay: N. meningitidis luminescent strain growth assay (16 h); assay type: cell-based, Neisseria meningitidis
Procedure: N. meningitidis Luminescent Strain Growth Assay (16 h)
To perform the library screening (FIG. 1) or to compare the activity of the different boron-containing salts (FIG. 3), the amount of light produced after 16 h of growth for N. meningitidis luminescent strain was measured. Contrarily to optical density (OD) readings which can be misleading due to the absorbance of dead cells, this measurement is directly correlated to the number of live cells, as the half-life of the luciferase and its substrate are limited and that the emission of light is therefore not subsisting after the death of the cells. To perform this assay, N. meninigitidis (LNP24198) expressing luciferase (LuxABCDE) was grown overnight under the control of the constitutive promoter porBp in GCB agar media, and a cell-suspension corresponding to an OD600=0.01 was subsequently prepared. In parallel, fresh stock DMSO solutions of the compounds were prepared (100×, with final concentrations being indicated in the different figures) and 1.8 μL of the corresponding solutions were added per well of 96-well plates. In each well, 178.2 μL of bacterial suspension were subsequently added. Bacteria were allowed to grow during 16 h at 37° C. with 5% CO2. The emitted light was measured using a 96-well plate luminometer (PerkinElmer Wallac 1420 Victor^3) and results are expressed in relative light unit (RLU). All these assays were performed at least in triplicates.
To screen molecules for their antibacterial activity, a luminescent system was used, as previously described for other bacteria. A clinical isolate of N. meninigitidis (LNP24198) expressing luciferase (LuxABCDE) under the control of the constitutive promoter porBp was used, as similarly described, located in the intergenic region next to NMB1732. More than 2400 compounds from different origins were screened to identify candidates with the ability to inhibit the growth of N. meningitidis after 16 h at 37° C. […] It is noteworthy that stock solutions for all tested compounds were prepared in DMSO and that the final DMSO concentration of the tested solutions was kept at 1%, a concentration which has proven not to affect the growth of N. meningitidis (FIG. 1A). […] An investigation of the effect of the BPh4^− moiety was then pursued.
To exclude any salt-specific effect, the effect of several BPh4^− and BF4^− salts on the growth of N. meningitidis luminescent strain was tested. The growth of N. meningitidis was measured after a 16 h-exposure to different concentrations of various BPh4^− and BF4^− salts. From this assay, the MIC (minimum inhibitory concentration, the lowest concentration that prevents visible bacterial growth, <800 RLU) was calculated. All BPh4 salts tested (sodium, ammonium and potassium) were all highly toxic for N. meningitidis.
Several borate compounds were prepared and their ability to inhibit N. meningitidis growth was assessed using the luminescent system described at Example 2.

[2] = system: N. meningitidis; assay: Bacterial survival assay (3 h), CFU counts; assay type: cell-based, Neisseria meningitidis
Procedure: (§1) Bacterial Survival Assay (3 h)
(§2) To measure bacterial survival (FIGS. 2 and 4), different bacteria were exposed to various concentrations of the compounds (as indicated) in their specific growth media (see the culture conditions above) for 3 h at 37° C. To perform this assay, all strains were grown overnight in their corresponding agar media. Cell-suspension corresponding to an OD600=0.05 were subsequently prepared. In parallel, fresh stock DMSO solutions of the compounds were prepared (100×, with final concentrations being indicated in the different figures) and 1.8 μL of the corresponding solutions were added per well of 96-well plates. In each well, 178.2 μL of bacterial suspension were subsequently added. Bacteria were allowed to grow during […] at 37° C. with 5% CO2. After incubation, serial dilutions (until 10^−6) were performed and 50 μL of each diluted solution were spread on agar plates. After an overnight incubation at 37° C. with/without 5% CO2, CFU were enumerated. All these assays were performed at least in triplicates.
(§3) Therefore, the bactericidal activity was assessed for the 4 compounds harboring a BPh4^− identified from the initial screen described above (AnIII-7, AnIII-6, AnII-18, NaBPh4). N. meningitidis was treated with 50 μM of each compound and the % survival cells (compared with DMSO 1% control) was measured using serial dilutions and CFU counts. […] To verify if the bactericidal effect could be observed for the other pathogen of the Neisseria family, a clinical isolate of. N. gonorrhoeae (LNP16626 [3]) was also treated with 50 μM of the same compounds, respectively, using the same assay.
(§4) The MBC (minimum bactericidal concentration that kill >99.999%), the concentration necessary to completely abrogate bacterial survival after a 3 h exposure to NaBPh4, was next assessed.

[3] = system: N. gonorrhoeae (LNP16626); assay: Bacterial survival assay (3 h), CFU counts; assay type: cell-based, Neisseria gonorrhoeae
Procedure: as §1, §2, §3, §4

[4] = system: N. lactamica; assay: Bacterial survival assay (3 h), CFU counts; assay type: cell-based, Neisseria lactamica
Procedure: as §1, §2
(§5) To verify if the toxicity of BPh4^− is specific to the Neisseria genus, the percentage of survival of several Neisseria species was assessed after treatment with 50 μM of NaBPh4^− for 3 h (FIG. 4A). […]

[5] = system: N. elongata; assay: Bacterial survival assay (3 h), CFU counts; assay type: cell-based, Neisseria elongata
Procedure: as §1, §2, §5

[6] = system: N. sicca; assay: Bacterial survival assay (3 h), CFU counts; assay type: cell-based, Neisseria sicca; settings: 50 μM, compared with N. meningitidis and N. gonorrhoeae
Procedure: as §1, §2, §5

[7] = system: Citrobacter rodentium; assay: Bacterial survival assay (3 h), CFU counts; assay type: cell-based; settings: 50 μM, compared with N. meningitidis and N. gonorrhoeae
Procedure: as §1, §2
(§6) To verify if the toxicity of BPh4^− is specific to the Neisseria genus, the percentage of survival of several Neisseria species was assessed after treatment with 50 μM of NaBPh4^− for 3 h (FIG. 4A). […] Other Gram-negative species such as Yersinia enterocolitica and Citrobacter rodentium (order Enterobacterales) or Moraxella catarrhalis (order Pseudomonadeles), but also Gram-positive species such as Staphylococcus aureus and Actinobacteria with M. smegmatis, were also tested.

[8] = system: M. smegmatis; assay: Bacterial survival assay (3 h), CFU counts; assay type: cell-based; settings: 50 μM, compared with N. meningitidis and N. gonorrhoeae
Procedure: as §1, §2, §6

[9] = system: Moraxella catarrhalis; assay: Bacterial survival assay (3 h), CFU counts; assay type: cell-based; settings: 50 μM, compared with N. meningitidis and N. gonorrhoeae
Procedure: as §1, §2, §6

[10] = system: Staphylococcus aureus; assay: Bacterial survival assay (3 h), CFU counts; assay type: cell-based; settings: 50 μM, compared with N. meningitidis and N. gonorrhoeae
Procedure: as §1, §2, §6

[11] = system: Yersinia enterocolitica; assay: Bacterial survival assay (3 h), CFU counts; assay type: cell-based; settings: 50 μM, compared with N. meningitidis and N. gonorrhoeae
Procedure: as §1, §2, §6

[12] = system: N. meningitidis (strain LNP 24198, luminescent); assay: Mice infection with luminescent N. meningitidis; assay type: in vivo, Balb/c mice; settings: IV or IP administration 2 h after infection, 24 h and 48 h post-infection, relative to vehicle (DMSO)
Procedure: (§7) The strain LNP 24198 of Neisseria meningitidis expressing the luxCDABE gene under the control of the porBp promoter was used. Three groups, with five seven-week-old Balb/c mice each, were infected with luminescent Neisseria meningitidis. For this, 200 μL of bacterial cultures at OD600nm of 0.1 (5×10^7 cells/mL) mixed with 150 μL of human transferrin (20 mg/mL) was injected in each mouse. Two hours later, one group was treated with 100 μL of NaBPh4 (20 μM) injected into the tail veins by intravenous injection (IV), and one group was treated with the same dose injected by intraperitoneal injection (IP). The remaining five were treated with 100 μL of DMSO as controls. NaBPh4 was initially prepared at 20 mM in DMSO before being diluted into PBS to reach a final concentration of 20 μM (with 0.1% DMSO). DMSO was diluted in PBS in the same manner to achieve 1:1000. To test a possible toxicity of NaBPh4, one group of 5 non-infected mice was treated with 100 μL of DMSO (IP) and two groups with 100 μL NaBPh4 (IV or IP). Luminescence was then measured, on the front and back of the mice, at different time points (0, 4, 8, 24 and 48 hours post-infection). The light signal was determined for each mouse using the ROI (Region Of Interest) tool of the IVIS Lumina Ill.
(§8) The effect of NaBPh4 administration in a murine model of N. meningitidis infection was assessed.

[13] = Toxicity of NaBPh4 in mice; assay type: in vivo, Balb/c mice; settings: mice treated with NaBPh4 (IV or IP)
Procedure: as §7, §8

[14] = 50 μM, 3 h, compared with N. meningitidis and N. gonorrhoeae

[Na+].c1ccc([B-](c2ccccc2)(c2ccccc2)c2ccccc2)cc1 [Compound 1, Sodium tetraphenylborate]
inhibition of the growth of N. meningitidis (library screening) ([1]; 100 μM, 16 h at 37° C., 1% DMSO): active
MIC ([1]; Neisseria meningitidis, 16 h): 15 µM
survival of N. meningitidis ([2]; 50 μM, 3 h, CFU counts vs DMSO 1% control): the detection of any live bacteria was not possible
MBC (minimum bactericidal concentration that kill >99.999%) ([2]; N. meningitidis, 3 h exposure): 18 µM
survival of N. gonorrhoeae ([3]; 50 μM, 3 h, CFU counts): no viable cells were detected
MBC (minimum bactericidal concentration that kill >99.999%) ([3]; N. gonorrhoeae, 3 h exposure): 7.5 µM
survival of N. lactamica [4, 14]: not as sensitive
MBC (minimum bactericidal concentration that kill >99.999%) ([4]; N. lactamica, 3 h exposure): higher than 200 μM
survival of N. elongata [5, 14]: less sensitive
MBC (minimum bactericidal concentration that kill >99.999%) ([5]; N. elongata, 3 h exposure): higher than 200 μM
survival of N. sicca [6]: less sensitive
survival of Citrobacter rodentium [7]: significantly more resistant
survival of M. smegmatis [8]: significantly more resistant
survival of Moraxella catarrhalis [9]: significantly more resistant
survival of Staphylococcus aureus [10]: significantly more resistant
survival of Yersinia enterocolitica [11]: significantly more resistant
N. meningitidis bacterial load (luminescence) [12]: significantly reduces
sign of toxicity in mice [13]: No apparent sign of toxicity
